The values that follow come from patent US10028942B2 (priority 2013, dated 2018).

The term Ki denotes the equilibrium dissociation constant of an inhibitor or competing ligand from its target.

For the test, the target named is T1, DLK (Homo sapiens, UniProt Q12852).
T1 sequence (Q12852 1-520): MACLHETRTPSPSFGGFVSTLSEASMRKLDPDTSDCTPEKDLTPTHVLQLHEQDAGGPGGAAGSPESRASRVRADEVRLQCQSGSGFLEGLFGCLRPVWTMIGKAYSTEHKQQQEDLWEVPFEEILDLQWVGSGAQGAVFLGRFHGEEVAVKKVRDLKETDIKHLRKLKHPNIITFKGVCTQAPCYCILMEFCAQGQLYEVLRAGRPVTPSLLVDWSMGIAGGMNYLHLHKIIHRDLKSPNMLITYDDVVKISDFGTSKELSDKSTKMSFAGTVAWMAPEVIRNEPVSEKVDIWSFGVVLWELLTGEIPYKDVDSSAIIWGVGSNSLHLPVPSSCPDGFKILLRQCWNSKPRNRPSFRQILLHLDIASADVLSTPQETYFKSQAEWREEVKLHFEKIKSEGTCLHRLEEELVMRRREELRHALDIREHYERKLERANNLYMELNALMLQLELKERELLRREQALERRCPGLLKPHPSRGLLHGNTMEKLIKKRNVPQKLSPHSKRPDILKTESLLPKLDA
Particulars: read-out: DLK (Ki) μM; TR-FRET; 5 nM GST-tagged DLK (catalytic domain aa 1-520), 40 nM HIS-MKK4 K131M substrate, 30 μM ATP, 60 minutes. On the technique in general: In TR-FRET formats the signal depends on donor and acceptor labels being close together.
With `CC(C)n1nc(-c2cnc3[nH]cc(C(F)(F)F)c3c2)cc1C1CCN(C)CC1` [Compound 40, 5-(1-isopropyl-5-(1-methylpiperidin-4-yl)-1H-pyrazol-3-yl)-3-(trifluoro-methyl)-1H-pyrrolo[2,3-b]pyridine], the Ki turned out to be 0.00017 µM. To `CC(C)n1nc(-c2cnc(N)c(OC(F)(F)F)c2)cc1[C@H]1[C@@H]2CN(C3COC3)C[C@@H]21` [Compound 165, 5-(1-isopropyl-5-((1R,5S,6r)-3-(oxe-tan-3-yl)-3-azabicyclo[3.1.0]hexan-6-yl)-1H-pyrazol-3-yl)-3-(trifluorometh-oxy)pyridin-2-amine] belongs 0.0019 µM; to `CC(C)n1nc(-c2cnc3[nH]cc(C(F)(F)F)c3c2)cc1C1CCN(CC#N)CC1` [Compound 51, 2-(4-(1-isopropyl-3-(3-(trifluorometh-yl)-1H-pyrrolo[2,3-b]pyridin-5-yl)-1H-pyrazol-5-yl)piperidin-1-yl)aceto-nitrile], 0.00017 µM; to `Cc1c[nH]c2ncc(-c3cc(C4CCOCC4)n(C4CC(F)(F)C4)n3)cc12` [Compound 35, 5-(1-(3,3-difluorocyclobutyl)-5-(tetra-hydro-2H-pyran-4-yl)-1H-pyrazol-3-yl)-3-methyl-1H-pyrrolo[2,3-b]pyri-dine], 0.1 µM.

As for `Nc1ncc(-c2cc([C@H]3[C@@H]4CN(C5COC5)C[C@@H]43)n(C3CCCC3)n2)cc1OC(F)(F)F` [Compound 166, 5-(1-cyclopentyl-5-((1R,5S,6r)-3-(oxe-tan-3-yl)-3-azabicyclo[3.1.0]hexan-6-yl)-1H-pyrazol-3-yl)-3-(trifluoro-methoxy)pyridin-2-amine], the Ki amounted to 0.0047 µM. To `Nc1ncc(-c2cc([C@H]3[C@@H]4CN(C5COC5)C[C@@H]43)n(C3CCC3)n2)cc1OC(F)F` [Compound 151, 5-(1-cyclobutyl-5-((1R,5S,6r)-3-(oxe-tan-3-yl)-3-azabicyclo[3.1.0]hexan-6-yl)-1H-pyrazol-3-yl)-3-(difluorometh-oxy)pyridin-2-amine] belongs 0.0055 µM; to `Nc1ncc(-c2cc([C@H]3[C@@H]4CN(C5COC5)C[C@@H]43)n(C3CCC3)n2)cc1C(F)(F)F` [Compound 148, 5-(1-cyclobutyl-5-((1R,5S,6r)-3-(oxetan-3-yl)-3-azabicyclo[3.1.0]hexan-6-yl)-1H-pyrazol-3-yl)-3-(trifluoromethyl)pyridin-2-amine], 0.0012 µM. For `Nc1ncc(-c2cc([C@H]3[C@@H]4COC[C@@H]43)n(C3CCCC3)n2)cc1Cl` [Compound 105, 5-(5-((1R,5S,6s)-3-oxabicyclo[3.1.0]hexan-6-yl)-1-cyclopentyl-1H-pyra-zol-3-yl)-3-chloropyridin-2-amine], the Ki amounted to 0.096 µM. Consider `CC(C)n1nc(-c2cnc(N)c(OC(F)F)c2)cc1C1CCN(C2COC2)CC1` [Compound 99, 3-(difluoromethoxy)-5-(1-isopropyl-5-(1-(oxetan-3-yl)piperidin-4-yl)-1H-pyrazol-3-yl)pyridin-2-amine], for which the Ki was 0.069 µM. Consider `CC(C)n1nc(-c2cnc(N)c(OC(F)F)c2)cc1C(C)(C)O` [Compound 3, 2-(3-(6-amino-5-(difluoromethoxy)pyridin-3-yl)-1-isopropyl-1H-pyrazol-5-yl)propan-2-ol], for which the inhibitory constant (Ki) stood at 0.14 µM. On to `CC(C)n1nc(-c2cnc3[nH]cc(C#N)c3c2)cc1C1CN(C2COC2)C1` [Compound 59, 5-(1-isopropyl-5-(1-(oxetan-3-yl)aze-tidin-3-yl)-1H-pyrazol-3-yl)-1H-pyrro-lo[2,3-b]pyridine-3-carbonitrile], for which the Ki stood at 0.31 µM.

With `CC(C)n1nc(-c2cnc3[nH]cc(C#N)c3c2)cc1C1CCN(C2COC2)CC1` [Compound 77, 5-(1-isopropyl-5-(1-(oxetan-3-yl)pipe-ridin-4-yl)-1H-pyrazol-3-yl)-1H-pyrro-lo[2,3-b]pyridine-3-carbonitrile], the Ki was determined as 0.12 µM. In the case of `COCCN1C[C@@H]2[C@H](C1)[C@H]2c1cc(-c2cnc(N)c(Cl)c2)nn1C(C)C` [Compound 118, 3-chloro-5-(1-isopropyl-5-((1R,5S,6r)-3-(2-methoxyethyl)-3-azabicyclo[3.1.0]hexan-6-yl)-1H-pyrazol-3-yl) pyridin-2-amine] it was 0.034 µM; in that of `Nc1ncc(-c2cc(C3CCOCC3)n(C3CC(F)(F)C3)n2)cc1Cl` [Compound 39, 3-chloro-5-(1-(3,3-difluorocyclobut-yl)-5-(tetrahydro-2H-pyran-4-yl)-1H-pyrazol-3-yl)pyridin-2-amine], 0.46 µM. In the case of `Nc1ncc(-c2cc(C3CCN(C4COC4)CC3)n(C3CCCC3)n2)cc1Cl` [Compound 71, 3-chloro-5-(1-cyclopentyl-5-(1-(oxetan-3-yl)piperidin-4-yl)-1H-pyrazol-3-yl)pyridin-2-amine], the Ki is 0.27 µM. With `COc1cc(-c2cc(C3CCN(C4COC4)CC3)n(C3CCCC3)n2)cnc1N` [Compound 88, 5-(1-cyclopentyl-5-(1-(oxetan-3-yl)piperidin-4-yl)-1H-pyrazol-3-yl)-3-methoxypyridin-2-amine], the Ki turned out to be 0.26 µM. Turning to `CC(C)n1nc(-c2cnc3[nH]cc(C(F)(F)F)c3c2)cc1[C@H]1[C@@H]2CN(C3COC3)C[C@@H]21` [Compound 133, 5-(1-isopropyl-5-((1R,5S,6r)-3-(oxe-tan-3-yl)-3-azabicyclo[3.1.0]hexan-6-yl)-1H-pyrazol-3-yl)-3-(trifluorometh-yl)-1H-pyrrolo[2,3-b]pyridine], the Ki was 0.0004 µM. With `CC(C)n1nc(-c2cnc(N)c3cn[nH]c23)cc1[C@H]1[C@@H]2CN(CC(F)(F)F)C[C@@H]21` [Compound 114, 7-(1-isopropyl-5-((1R,5S,6r)-3-(2,2,2-trifluoroethyl)-3-azabicyclo[3.1.0]hexan-6-yl)-1H-pyrazol-3-yl)-1H-py-razolo[4,3-c]pyridin-4-amine], the inhibition constant Ki worked out at 0.96 µM. Consider `Nc1ncc(-c2cc([C@H]3[C@@H]4CNC[C@@H]43)n(CC(F)(F)F)n2)cc1C(F)(F)F` [Compound 107, 5-(5-((1R,5S,6r)-3-azabicyclo[3.1.0]hexan-6-yl)-1-(2,2,2-trifluoroethyl)-1H-pyrazol-3-yl)-3-(trifluoromethyl) pyridin-2-amine], for which the Ki amounted to 0.0024 µM. For the compound `COCCN1C[C@@H]2[C@H](C1)[C@H]2c1cc(-c2cnc(N)c(OC(F)F)c2)nn1C(C)C` [Compound 119, 3-(difluoromethoxy)-5-(1-isopropyl-5-((1R,5S,6r)-3-(2-methoxyethyl)-3-azabicyclo[3.1.0]hexan-6-yl)-1H-py-razol-3-yl)pyridin-2-amine], the Ki was 0.0055 µM.

In the case of `CC(=O)N1CC(c2cc(-c3cnc4[nH]cc(C(F)(F)F)c4c3)nn2C(C)C)C1` [Compound 10, 1-(3-(1-isopropyl-3-(3-(trifluorometh-yl)-1H-pyrrolo[2,3-b]pyridin-5-yl)-1H-pyrazol-5-yl)azetidin-1-yl)ethan-one], the inhibition constant (Ki) stood at 0.0064 µM.

In the case of `Nc1ncc(-c2cc([C@H]3[C@@H]4CN(C5COC5)C[C@@H]43)n(CC3CC3)n2)cc1C(F)(F)F` [Compound 152, 5-(1-(cyclopropylmethyl)-5-((1R,5S,6r)-3-(oxetan-3-yl)-3-azabicyclo[3.1.0]hexan-6-yl)-1H-pyrazol-3-yl)-3-(tri-fluoromethyl)pyridin-2-amine], the Ki is 0.00017 µM. With `CC(C)n1nc(-c2cnc(N)c(C#N)c2)cc1C1CCN(C2COC2)CC1` [Compound 92, 2-amino-5-(1-isopropyl-5-(1-(oxetan-3-yl)piperidin-4-yl)-1H-pyrazol-3-yl)nicotinonitrile], the inhibition constant (Ki) is 0.94 µM. `CC(C)n1nc(-c2cnc(N)c(OC(F)(F)F)c2)cc1C(C)(C)C#N` [Compound 6, 2-(3-(6-amino-5-(trifluoromethoxy)pyridin-3-yl)-1-isopropyl-1H-pyrazol-5-yl)-2-methylpropanenitrile]: the Ki came out at 0.14 µM. To `Nc1ncc(-c2cc([C@H]3[C@@H]4CN(C5COC5)C[C@@H]43)n(CC3CC3)n2)cc1C1CC1` [Compound 161, 3-cyclopropyl-5-(1-(cyclopropylmeth-yl)-5-((1R,5S,6r)-3-(oxetan-3-yl)-3-azabicyclo[3.1.0]hexan-6-yl)-1H-pyrazol-3-yl)pyridin-2-amine] belongs 0.021 µM; to `CC(C)n1nc(-c2cnc(N)c(C#N)c2)cc1[C@H]1[C@@H]2CN(C3COC3)C[C@@H]21` [Compound 144, 2-amino-5-(1-isopropyl-5-((1R,5 S,6r)-3-(oxetan-3-yl)-3-azabicyclo[3.1.0]hexan-6-yl)-1H-pyrazol-3-yl)nicotinonitrile], 0.022 µM; to `COc1cc(-c2cc([C@H]3[C@@H]4CN(C5COC5)C[C@@H]43)n(C3CCCC3)n2)cnc1N` [Compound 157, 5-(1-cyclopentyl-5-((1R,5S,6r)-3-(oxe-tan-3-yl)-3-azabicyclo[3.1.0]hexan-6-yl)-1H-pyrazol-3-yl)-3-methoxy-pyridin-2-amine], 0.035 µM. On to `CC(C)n1nc(-c2cnc(N)c(C(F)(F)F)c2)cc1C(C)(C)C#N` [Compound 4, 2-(3-(6-amino-5-(trifluoromethyl)pyridin-3-yl)-1-isopropyl-1H-pyrazol-5-yl)-2-methylpropanenitrile], for which the Ki was found to be 0.78 µM. To `FC1(F)CCC(n2nc(-c3cnc4[nH]cc(C(F)(F)F)c4c3)cc2C2CCOC2)C1` (centres unmarked) [Compound 16, 5-(1-(3,3-difluorocyclopentyl)-5-(tetrahydrofuran-3-yl)-1H-pyrazol-3-yl)-3-(trifluoromethyl)-1H-pyrrolo[2,3-b]pyridine] belongs 0.013 µM.
